Measurements reported in patent US4468511A, “C-20- And C-23-Modified macrolide derivatives” (Eli Lilly and Company, priority 1983, dated 1984).
In brackets after ≈: the same amount, converted by molar mass. Like-named read-outs stand apart in the source and are kept apart here.

Assays:
[1] = test system: Streptococcus pyogenes C203; experiment: Protection of mice experimentally infected with S. pyogenes C203; type: in vivo; details: mg/kg × 2, doses given 1 and 4 hours postinfection
Experimental: Some of the derivatives of this invention have shown in vivo antimicrobial activity against experimentally-induced infections in laboratory animals. When two doses of test compound were administered to mice experimentally infected with S. pyogenes C203, the activity observed was measured as an ED50 value [effective dose in mg/kg to protect 50% of the test animals: see Warren Wick, et al., J. Bacteriol. 81, 233-235 (1961)].

[2] = test system: Staphylococcus epidermidis EPI2; experiment: MIC, standard agar-dilution assay; type: cell-based
Experimental: (§1) The MIC's in Table II were determined by standard agar-dilution assays. The MIC's in Table III were obtained using a conventional broth-dilution microtiter test.

[3] = test system: Staphylococcus aureus X400; experiment: MIC, standard agar-dilution assay; type: cell-based; details: Staphylococcus aureus, X400
Experimental: as §1

[4] = test system: Haemophilus influenzae 76; experiment: MIC, standard agar-dilution assay; type: cell-based; details: agar-dilution; Haemophilus influenzae 76, Ampicillin-resistant strain; read-out: MIC
Experimental: as §1

[5] = test system: Haemophilus influenzae C.L.; experiment: MIC, standard agar-dilution assay; type: cell-based
Experimental: as §1

[6] = test system: Streptococcus pneumoniae Park I; experiment: MIC, standard agar-dilution assay; type: cell-based; details: agar-dilution; Streptococcus pneumoniae Park I; read-out: MIC
Experimental: (§2) Certain of the derivatives are active against some gram-negative bacteria, such as Pasteurella species. The MIC's in Table II were determined by standard agar-dilution assays. The MIC's in Table III were obtained using a conventional broth-dilution microtiter test.

[7] = test system: Streptococcus Group D X66; experiment: MIC, standard agar-dilution assay; type: cell-based
Experimental: as §2

[8] = test system: Streptococcus pyogenes C203; experiment: MIC, standard agar-dilution assay; type: cell-based
Experimental: as §2

[9] = test system: Staphylococcus aureus V41; experiment: MIC, standard agar-dilution assay; type: cell-based; details: Staphylococcus aureus, V41
Experimental: as §2

[10] = test system: Streptococcus pyogenes 9960; experiment: MIC, standard agar-dilution assay; type: cell-based
Experimental: as §2

[11] = test system: Staphylococcus aureus X1.1; experiment: MIC, standard agar-dilution assay; type: cell-based; details: Staphylococcus aureus, X1.1
Experimental: as §2

[12] = test system: Klebsiella pneumoniae X26; experiment: MIC, standard agar-dilution assay; type: cell-based
Experimental: as §2

Escherichia coli EC14 = experiment: MIC, standard agar-dilution assay; type: cell-based
Experimental: as §2

[13] = test system: Klebsiella pneumoniae KAE; experiment: MIC, standard agar-dilution assay; type: cell-based
Experimental: as §2

Escherichia coli TEM = experiment: MIC, standard agar-dilution assay; type: cell-based; details: agar-dilution; Escherichia coli TEM; read-out: MIC
Experimental: as §2

[14] = test system: Pasteurella multocida 40G; experiment: MIC, conventional broth-dilution microtiter test; type: cell-based
Experimental: as §2

[15] = test system: Pasteurella hemolytica 23C; experiment: MIC, conventional broth-dilution microtiter test; type: cell-based; details: broth-dilution microtiter; Pasteurella hemolytica 23C; read-out: MIC
Experimental: as §2

[16] = test system: Pasteurella hemolytica 22C; experiment: MIC, conventional broth-dilution microtiter test; type: cell-based; details: broth-dilution microtiter; Pasteurella hemolytica 22C; read-out: MIC
Experimental: as §2

Mycoplasma gallisepticum = experiment: MIC, conventional broth-dilution microtiter test; type: cell-based; details: Mycoplasmoides gallisepticum
Experimental: as §2

Staphylococcus aureus = experiment: MIC, conventional broth-dilution microtiter test; type: cell-based; details: broth-dilution microtiter, read-out: MIC
Experimental: as §2

Streptococcus sp. 80 = experiment: MIC, conventional broth-dilution microtiter test; type: cell-based
Experimental: as §2

Mycoplasma hyorhinis = experiment: MIC, conventional broth-dilution microtiter test; type: cell-based; details: broth-dilution microtiter; Mycoplasma hyorhinis; read-out: MIC
Experimental: as §2

[17] = test system: Mycoplasma gallisepticum 34159; experiment: MIC, conventional broth-dilution microtiter test; type: cell-based; details: Mycoplasmoides gallisepticum
Experimental: as §2

[18] = test system: Mycoplasma gallisepticum 41313; experiment: MIC, conventional broth-dilution microtiter test; type: cell-based; details: Mycoplasmoides gallisepticum
Experimental: as §2

[19] = test system: Pasteurella multocida 17E; experiment: MIC, conventional broth-dilution microtiter test; type: cell-based
Experimental: as §2

[20] = test system: Pasteurella multocida 60A; experiment: MIC, conventional broth-dilution microtiter test; type: cell-based
Experimental: as §2

[21] = test system: Pasteurella hemolytica 41D; experiment: MIC, conventional broth-dilution microtiter test; type: cell-based; details: broth-dilution microtiter; Pasteurella hemolytica 41D; read-out: MIC
Experimental: as §2

Mycoplasma synoviae = experiment: MIC, conventional broth-dilution microtiter test; type: cell-based; details: Mycoplasmopsis synoviae
Experimental: as §2

[22] = test system: Pasteurella multocida 68C; experiment: MIC, conventional broth-dilution microtiter test; type: cell-based
Experimental: as §2

[23] = test system: Pasteurella multocida 22A; experiment: MIC, conventional broth-dilution microtiter test; type: cell-based
Experimental: as §2

[24] = test system: Staphylococcus aureus S13E; experiment: microbe, parasite or virus in culture; type: cell-based
Experimental: as §1

[25] = test system: Staphylococcus epidermidis EPI1; experiment: microbe, parasite or virus in culture; type: cell-based; details: Staphylococcus epidermidis, EPI1
Experimental: as §1

[26] = C203, mice, oral, read-out: ED50 Oral
[27] = C203, sc, mice, subcutaneous, read-out: ED50 Subcutaneous
[28] = Staphylococcus epidermidis, EPI2
[29] = agar-dilution, Streptococcus Group D X66, read-out: MIC
[30] = agar-dilution, Klebsiella pneumoniae X26, read-out: MIC
[31] = agar-dilution, Escherichia coli EC14, read-out: MIC
[32] = agar-dilution, Klebsiella pneumoniae KAE, read-out: MIC
[33] = broth-dilution microtiter, Mycoplasma gallisepticum, read-out: MIC
[34] = broth-dilution microtiter, Streptococcus sp. 80, read-out: MIC
[35] = broth-dilution microtiter, Mycoplasma gallisepticum 34159, Resistant strain, read-out: MIC
[36] = broth-dilution microtiter, Mycoplasma gallisepticum 41313, Resistant strain, read-out: MIC
[37] = agar-dilution, Streptococcus pyogenes C203, read-out: MIC
[38] = agar-dilution, Streptococcus 9960, read-out: MIC
[39] = broth-dilution microtiter, Pasteurella multocida 60A, Avian isolate, read-out: MIC
[40] = broth-dilution microtiter, Mycoplasma synoviae, read-out: MIC

| Compound | ED50 [1, 26] [mg/kg] | ED50 [1, 27] [mg/kg] | MIC [2, 28] [µg/mL] | MIC [3] [µg/mL] | MIC [4] [µg/mL] | MIC [6] [µg/mL] | MIC [7, 29] [µg/mL] | MIC [9] [µg/mL] | MIC [11] [µg/mL] | MIC [12, 30] [µg/mL] | MIC (Escherichia coli EC14; [31]) [µg/mL] | MIC [13, 32] [µg/mL] | MIC (Escherichia coli TEM) [µg/mL] | MIC [15] [µg/mL] | MIC [16] [µg/mL] | MIC (Staphylococcus aureus) [µg/mL] | MIC (Mycoplasma hyorhinis) [µg/mL] | MIC [21] [µg/mL] | MIC [24] [µg/mL] | MIC [25] [µg/mL] | further results |
| --- | --- | --- | --- | --- | --- | --- | --- | --- | --- | --- | --- | --- | --- | --- | --- | --- | --- | --- | --- | --- | --- |
| CCC1OC(=O)CC(O)C(C)C(OC2OC(C)C(O)C(N(C)C)C2O)C(CCOc2ccccc2)CC(C)C(=O)C=CC(C)=CC1COc1ccccc1 (stereo not drawn) [Compound 32, 20,23-Di-O-phenyl-20-dihydro-OMT] | > 50 | > 10 | 1 (≈ 1.33 µM) | 2 (≈ 2.66 µM) | > 128 | 0.25 (≈ 0.332 µM) | 0.5 (≈ 0.665 µM) | 1 (≈ 1.33 µM) | 1 (≈ 1.33 µM) | > 128 | > 128 | > 128 | > 128 | 12.5 (≈ 16.6 µM) | 12.5 (≈ 16.6 µM) | 0.39 (≈ 0.519 µM) | 50 (≈ 66.5 µM) | 12.5 (≈ 16.6 µM) | 1 (≈ 1.33 µM) | 1 (≈ 1.33 µM) | MIC ([5]; agar-dilution, Haemophilus influenzae C.L., Ampicillin-sensitive strain, read-out: MIC): > 128 µg/mL; MIC ([8]; Streptococcus pyogenes, C203): 2 µg/mL (≈ 2.66 µM); MIC [10]; 9960: 2 µg/mL (≈ 2.66 µM); MIC ([14]; Pasteurella multocida, 40G): 3.12 µg/mL (≈ 4.15 µM); MIC (Mycoplasma gallisepticum; [33]): 0.78 µg/mL (≈ 1.04 µM); MIC (Streptococcus sp. 80; [34]): 0.048 µg/mL (≈ 0.0638 µM); MIC [17, 35]: 6.25 µg/mL (≈ 8.31 µM); MIC [18, 36]: 25 µg/mL (≈ 33.2 µM); MIC ([19]; Pasteurella multocida, 17E): 3.12 µg/mL (≈ 4.15 µM); MIC ([20]; Pasteurella multocida, 60A): 3.12 µg/mL (≈ 4.15 µM); MIC (Mycoplasma synoviae): 6.25 µg/mL (≈ 8.31 µM); MIC ([22]; Pasteurella multocida, 68C): 3.12 µg/mL (≈ 4.15 µM); MIC ([23]; Pasteurella multocida, 22A): 3.12 µg/mL (≈ 4.15 µM) |
| CCC1CC(C)C(=O)C=CC(C)=CC(COc2cccc(OC)c2OC)C(CC)OC(=O)CC(O)C(C)C1OC1OC(C)C(O)C(N(C)C)C1O (stereo not drawn) [Compound 47, 23-O-(2,3-Dimethoxyphenyl)-20-deoxy-20-dihydro-OMT] | > 50 | > 10 | 0.25 (≈ 0.347 µM) | 0.25 (≈ 0.347 µM) | 16 (≈ 22.2 µM) |  | 0.25 (≈ 0.347 µM) | 0.25 (≈ 0.347 µM) | 0.25 (≈ 0.347 µM) |  | > 128 | > 128 | 128 (≈ 178 µM) | 25 (≈ 34.7 µM) | 25 (≈ 34.7 µM) | 3.12 (≈ 4.33 µM) | 25 (≈ 34.7 µM) | 25 (≈ 34.7 µM) | 0.25 (≈ 0.347 µM) | 0.25 (≈ 0.347 µM) | MIC ([5]; Haemophilus influenzae): 32 µg/mL (≈ 44.4 µM); MIC [8, 37]: 0.25 µg/mL (≈ 0.347 µM); MIC [10, 38]: 0.25 µg/mL (≈ 0.347 µM); MIC ([12]; Klebsiella pneumoniae, X26): 4 µg/mL (≈ 5.56 µM); MIC ([14]; Pasteurella multocida, 40G): 12.5 µg/mL (≈ 17.4 µM); MIC (Mycoplasma gallisepticum): 1.56 µg/mL (≈ 2.17 µM); MIC (Streptococcus sp. 80; Streptococcus, SP.80): 1.56 µg/mL (≈ 2.17 µM); MIC [17]; 34159: 50 µg/mL (≈ 69.5 µM); MIC [18]; 41313: 50 µg/mL (≈ 69.5 µM); MIC ([19]; broth-dilution microtiter, Pasteurella multocida 17E, Bovine isolate, read-out: MIC): 25 µg/mL (≈ 34.7 µM); MIC [20, 39]: 25 µg/mL (≈ 34.7 µM); MIC (Mycoplasma synoviae; [40]): 6.25 µg/mL (≈ 8.68 µM); MIC ([22]; Pasteurella multocida, 68C): 12.5 µg/mL (≈ 17.4 µM); MIC ([23]; Pasteurella multocida, 22A): 50 µg/mL (≈ 69.5 µM) |
| CCC1OC(=O)CC(O)C(C)C(OC2OC(C)C(O)C(N(C)C)C2O)C(CCO)CC(C)C(=O)C=CC(C)=CC1CN1CCCCCCC1 (stereo not drawn) [Compound 58, 20-Dihydro-23-Octahydroazocin-1-yl-23-deoxy-OMT] |  |  |  | 1 (≈ 1.44 µM) | 4 (≈ 5.76 µM) | 0.25 (≈ 0.36 µM) |  | 0.5 (≈ 0.719 µM) | 0.5 (≈ 0.719 µM) | 2 (≈ 2.88 µM) |  |  | 8 (≈ 11.5 µM) | 0.78 (≈ 1.12 µM) | 0.78 (≈ 1.12 µM) | 0.78 (≈ 1.12 µM) | 25 (≈ 36 µM) | 0.39 (≈ 0.561 µM) | 0.5 (≈ 0.719 µM) | 0.5 (≈ 0.719 µM) | MIC ([2]; agar-dilution, Staphylococcus epidermidis EPI2, read-out: MIC): 0.25 µg/mL (≈ 0.36 µM); MIC ([5]; Haemophilus influenzae): 2 µg/mL (≈ 2.88 µM); MIC [7]: 2 µg/mL (≈ 2.88 µM); MIC [8, 37]: 0.25 µg/mL (≈ 0.36 µM); MIC [10, 38]: 4 µg/mL (≈ 5.76 µM); MIC (Escherichia coli EC14; Escherichia coli, EC14): 64 µg/mL (≈ 92.1 µM); MIC ([13]; Klebsiella pneumoniae): 64 µg/mL (≈ 92.1 µM); MIC ([14]; broth-dilution microtiter, Pasteurella multocida 40G, read-out: MIC): 0.39 µg/mL (≈ 0.561 µM); MIC (Mycoplasma gallisepticum; [33]): 0.39 µg/mL (≈ 0.561 µM); MIC (Streptococcus sp. 80; [34]): 1.56 µg/mL (≈ 2.24 µM); MIC [17, 35]: > 50 µg/mL; MIC [18, 36]: 50 µg/mL (≈ 71.9 µM); MIC ([19]; Pasteurella multocida, 17E): 3.12 µg/mL (≈ 4.49 µM); MIC [20, 39]: 0.78 µg/mL (≈ 1.12 µM); MIC (Mycoplasma synoviae; [40]): 6.25 µg/mL (≈ 8.99 µM); MIC ([22]; broth-dilution microtiter, Pasteurella multocida 68C, read-out: MIC): 1.56 µg/mL (≈ 2.24 µM); MIC ([23]; broth-dilution microtiter, Pasteurella multocida 22A, read-out: MIC): 1.56 µg/mL (≈ 2.24 µM) |
